In the supplement of paper PMC10307832:

Legend:
Experiment in all cases: relative viability (nuclei count vs DMSO), 5 days (fraction); higher = more cells survive
TPCA-1 + Foretinib = compound: C1=CC(=CC=C1C2=CC(=C(S2)NC(=O)N)C(=O)N)F [TPCA-1] + COc1cc2c(Oc3ccc(NC(=O)C4(C(=O)Nc5ccc(F)cc5)CC4)cc3F)ccnc2cc1OCCCN1CCOCC1 [Foretinib] (partner 0.25 µM)
Method in brief: (§1)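 For relative viability, nuclei counts in treated wells were divided by those in vehicle wells. Lung cancer cell lines had been pin-tool dosed in 1536-well plates the day after seeding and cultured for 5 days, then fixed and stained in one step (final 0.05% Triton X-100, 1% formaldehyde, 1 ug/ml Hoechst) and imaged at 4×. Doses were one drug alone or a fixed anchor-drug dose plus five library-drug doses (not always all listed) in √10 steps, and values are duplicate-plate medians.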

[1] = compound: C1/C(=C\C2=CC=CS2)/C(=O)/C(=C/C3=CC=CS3)/C1 + CCNC(=O)c1noc(-c2cc(C(C)C)c(O)cc2O)c1-c1ccc(CN2CCOCC2)cc1 [Luminespib] (partner 0.01 µM)
Method in brief: as §1

[2] = compound: C1/C(=C\C2=CC=CS2)/C(=O)/C(=C/C3=CC=CS3)/C1 + Nc1nc2[nH]cc(CCc3ccc(C(=O)N[C@@H](CCC(=O)O)C(=O)O)cc3)c2c(=O)[nH]1 [Pemetrexed] (partner 0.2 µM)
Method in brief: as §1

Lestaurtinib + OSI-027 = compound: C[C@]12O[C@H](C[C@]1(O)CO)n1c3ccccc3c3c4c(c5c6ccccc6n2c5c31)CNC4=O [Lestaurtinib] + COc1cccc2cc(-c3nc([C@H]4CC[C@H](C(=O)O)CC4)n4ncnc(N)c34)[nH]c12 [OSI-027] (partner 0.5 µM)
Method in brief: as §1

Cell Line	relative viability (TPCA-1 + Foretinib; first compound 0.04 µM)	relative viability (TPCA-1 + Foretinib; first compound 0.1265 µM)	relative viability (TPCA-1 + Foretinib; first compound 0.4 µM)	relative viability (TPCA-1 + Foretinib; first compound 1.265 µM)	relative viability (TPCA-1 + Foretinib; first compound 4 µM)	relative viability ([1]; first compound 0.2 µM)	relative viability ([1]; first compound 0.6325 µM)	relative viability ([1]; first compound 2 µM)	relative viability ([1]; first compound 6.325 µM)	relative viability ([1]; first compound 20 µM)	relative viability ([2]; first compound 0.2 µM)	relative viability ([2]; first compound 0.6325 µM)	relative viability ([2]; first compound 2 µM)	relative viability ([2]; first compound 6.325 µM)	relative viability ([2]; first compound 20 µM)	relative viability (Lestaurtinib + OSI-027; first compound 0.005 µM)	relative viability (Lestaurtinib + OSI-027; first compound 0.01581 µM)	relative viability (Lestaurtinib + OSI-027; first compound 0.05 µM)	relative viability (Lestaurtinib + OSI-027; first compound 0.1581 µM)	relative viability (Lestaurtinib + OSI-027; first compound 0.5 µM)
NCI-H23	0.947	0.934	0.935	1.08	0.867	0.237	0.197	0.2	0.203	0.194	0.781	0.641	0.859	0.453	0.71	0.592	0.719	0.596	0.418	0.345
SW 900	0.894	0.71	0.841	0.958	0.789	0.16	0.173	0.181	0.175	0.156	0.481	0.525	0.49	0.399	0.482	0.561	0.702	0.623	0.522	0.527
NCI-H1437	1.31	1.4	1.25	1.32	1.41	1.26	1.23	1.06	0.95	1.09	0.286	0.362	0.353	0.252	0.311	0.885	0.949	0.952	0.747	0.698
SK-MES-1	0.997	0.847	0.813	0.599	0.609	0.868	0.646	0.839	0.545	0.773	0.972	0.959	0.949	0.752	0.988	0.536	0.486	0.407	0.342	0.151
NCI-H2405	1.03	1.05	1.11	0.991	1.03	0.818	0.773	0.743	0.673	0.675	1.08	0.96	1.2	1.01	1.04	0.647	0.685	0.59	0.487	0.414
NCI-H2023	0.88	0.86	0.874	0.797	0.658	0.864	0.642	0.735	0.515	0.677	0.239	0.305	0.263	0.175	0.218	0.375	0.407	0.341	0.296	0.104
NCI-H838	1.06	0.99	0.918	0.843	0.769	0.387	0.253	0.309	0.222	0.281	0.249	0.256	0.261	0.212	0.242	0.399	0.441	0.397	0.446	0.228
NCI-H1563	1.03	0.944	0.96	0.991	1.02	0.567	0.511	0.552	0.534	0.492	0.73	0.801	0.912	0.798	0.763	0.724	0.755	0.757	0.777	0.734
NCI-H661	1.08	1.03	1.06	0.96	0.888	0.942	0.964	0.934	0.843	0.929	0.914	1.01	0.949	0.806	0.959	0.623	0.736	0.405	0.589	0.372
NCI-H1734	0.897	0.742	0.917	0.818	0.732	0.193	0.19	0.209	0.22	0.211	0.439	0.433	0.457	0.37	0.426	0.678	0.571	0.368	0.362	0.187
NCI-H1650	1.15		1.36	1.14	0.858	0.176	0.194	0.205	0.218	0.185	0.35	0.392	0.42	0.373	0.367	0.642	0.829	0.594	0.652	0.357
NCI-H596	0.953	0.811	0.855	0.98	0.937	1.06	1.09	1.08	0.912	0.992	0.5	0.477	0.527	0.526	0.505	0.743	0.818	0.647	0.717	0.65
NCI-H1944	1.04	0.821	0.869	0.847	0.488	0.762	0.731	0.674	0.695	0.626	0.619	0.591	0.603		0.572	0.483	0.406	0.322	0.31	0.292
LK-2	1.5	0.969	1.14	1.14	0.729	0.166	0.187	0.177	0.202	0.212	0.273		0.354	0.282	0.276	0.158	0.224	0.176	0.185	0.173
HCC-15	1.09	0.919	1.06	0.96	0.77	0.396	0.245	0.234	0.211	0.219	0.221	0.203	0.218	0.214	0.217	0.717	0.757	0.658	0.464	0.185
HOP-62	1.19	1.09	1.17	1.06	1.06	0.992	1.03	0.909	0.861	0.918	0.307	0.316	0.248	0.243	0.342	0.936	0.958	0.498	0.643	0.415
